Data from patent US20240335431A1, “1-H-PYRROLO[2,3-c]PYRIDINE COMPOUNDS” (Acerta Pharma B.V., priority 2023, published 2024).
Read-outs that look alike come from different tables or passages of the source.

What was measured:
MV4;11 cells = experiment: Proliferation assay, MV4;11 (CellTiter-Glo, 7 days); format: cell-based, human; settings: read-out: MV-4-11 IC50
In short: (§1)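 Cells were seeded at line-specific low densities for linear growth, exposed to 3.16-fold serial compound dilutions at 0.1% DMSO, and incubated 7 days at 37 °C, 5% CO2. Viability was read by CellTiter-Glo 2.0 luminescence; IC50 came from one-site fits of % inhibition, normalized between DMSO-treated cells (100%) and a day-0 plate (0%).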

HEL cells = experiment: Proliferation assay, HEL control cell line (CellTiter-Glo, 7 days); format: cell-based, human
In short: as §1

OCI-AML3 cells = experiment: Proliferation assay, OCI-AML3 (CellTiter-Glo, 7 days); format: cell-based, human
In short: as §1

muscarinic M2 receptor = muscarinic M2 receptor (Homo sapiens (Human), UniProt P08172); experiment: Muscarinic M2 receptor binding assay (assay 1); settings: [3H]AF-DX 384 2 nM, Cheng Prusoff
Sequence of muscarinic M2 receptor (P08172 whole entry): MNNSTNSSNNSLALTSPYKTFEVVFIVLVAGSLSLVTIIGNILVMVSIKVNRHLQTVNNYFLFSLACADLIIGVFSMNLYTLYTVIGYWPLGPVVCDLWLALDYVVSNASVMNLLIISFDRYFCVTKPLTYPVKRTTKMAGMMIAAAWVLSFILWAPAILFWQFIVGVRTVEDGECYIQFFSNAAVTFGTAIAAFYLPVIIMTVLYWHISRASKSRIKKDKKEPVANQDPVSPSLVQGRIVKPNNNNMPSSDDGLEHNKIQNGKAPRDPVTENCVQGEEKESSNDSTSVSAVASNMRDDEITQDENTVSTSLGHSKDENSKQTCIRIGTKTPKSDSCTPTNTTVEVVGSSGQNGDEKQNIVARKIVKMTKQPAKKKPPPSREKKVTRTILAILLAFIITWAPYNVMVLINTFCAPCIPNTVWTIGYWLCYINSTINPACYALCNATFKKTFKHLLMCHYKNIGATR
Procedure: Cell membrane homogenates (60 μg protein) were incubated for 60 minutes at 22° C. with 2 nM [3H]AF-DX 384 in the absence or presence of the test compound in a buffer containing 50 mM Tris-HCl (pH 7.4), 120 mM NaCl, 5 mM KCl, 5 mM MgCl2, and 1 mM EDTA. Nonspecific binding was determined in the presence of 1 μM atropine. Following incubation, the samples were filtered rapidly under vacuum through glass fiber filters (GF/B, Packard) presoaked with 0.3% PEI and rinsed several times with ice-cold 50 mM Tris-HCl using a 96-sample cell harvester (Unifilter, Packard). The filters were dried then counted for radioactivity in a scintillation counter (Topcount, Packard) using a scintillation cocktail (Microscint 0, Packard). The results were expressed as a percent inhibition of the control radioligand specific binding, from which the Ki was calculated. Data were analyzed using software developed at Cerep (Hill software) and validated by comparison with data generated by the commercial software SigmaPlot®4.0 for Windows® (© 1997 by SPSS Inc.). The inhibition constant, Ki, was calculated using the Cheng Prusoff equation:
where L=concentration of ligand in the assay, and Kd=affinity of the ligand for the receptor. The standard reference compound was methoctramine, which was tested in each experiment at several concentrations to obtain a competition curve from which its IC50 was calculated.

| SMILES | IC50 (MV4;11 cells; Homo sapiens, MV4-11, 168 h) | IC50 (OCI-AML3 cells; Homo sapiens, OCI-AML-3, 168 h) | Ki (muscarinic M2 receptor) | IC50 (OCI-AML3 cells) | IC50 (HEL cells; Homo sapiens, HEL, 168 h) | IC50 (MV4;11 cells) | IC50 (HEL cells) |
| --- | --- | --- | --- | --- | --- | --- | --- |
| CC(C)N(C(=O)c1cc(F)ccc1-n1cc(C(=O)C2CCN(C(=O)[C@H]3NC[C@@H]4CC[C@@H]43)CC2)c2ccncc21)C(C)C (relative stereo) [Example 25, rel-2-(3-(1-((1R,2R,5S)-3-Azabicyclo[3.2.0]heptane-2-carbonyl)piperidine-4-carbonyl)-1H-pyrrolo[2,3-c]pyridin-1-yl)-5-fluoro-N,N-diisopropylbenzamide] | 0.024 µM | 0.037 µM | 1.9 µM |  | > 10 µM |  |  |
| CCN(C(=O)c1cc(F)ccc1-n1c(C)c(C(=O)C2CCN(C(=O)[C@@H]3CCC4(CC4)N3)CC2)c2ccncc21)C(C)C (single isomer, unassigned) [Example 49-2] |  | > 0.233 µM | 27.4 µM |  |  | 0.034 µM | > 10 µM |
| CC(C)N(C(=O)c1cc(F)ccc1-n1cc(C(=O)[C@H]2CCN(C[C@H]3CC[C@H](NS(C)(=O)=O)CC3)C2)c2ccncc21)C(C)C [Example 1, 5-Fluoro-N,N-diisopropyl-2-(3-((S)-1-(((1r,4S)-4-(methylsulfonamido)-cyclohexyl)methyl)pyrrolidine-3-carbonyl)-1H-pyrrolo[2,3-c]pyridin-1-yl)benzamide] | 0.166 µM | 0.313 µM | 8.1 µM |  | > 10 µM |  |  |
| CC(C)N(C(=O)c1cc(F)ccc1-n1cc(C(=O)[C@@H]2CCN(C[C@H]3CC[C@H](NS(C)(=O)=O)CC3)C2)c2ccncc21)C(C)C [Example 4, 5-Fluoro-N,N-diisopropyl-2-(3-((R)-1-(((1r,4R)-4-(methylsulfonamido)-cyclohexyl)methyl)pyrrolidine-3-carbonyl)-1H-pyrrolo[2,3-c]pyridin-1-yl)benzamide] | 0.132 µM | 0.223 µM |  |  | > 10 µM |  |  |
| CCN(C(=O)c1cc(F)ccc1-n1cc(C(=O)C2CN(C(=O)[C@H]3N[C@@H]4CC[C@H]3C4)C2)c2ccncc21)C(C)C [Example 8, 2-(3-(1-((1R,3S,4S)-2-Azabicyclo[2.2.1]heptane-3-carbonyl)azetidine-3-carbonyl)-1H-pyrrolo[2,3-c]pyridin-1-yl)-N-ethyl-5-fluoro-N-isopropylbenzamide] | 0.1 µM | 0.193 µM | 8 µM |  | > 10 µM |  |  |
| CCN(C(=O)c1cc(F)ccc1-n1cc(C(=O)C2CN(C(=O)[C@H]3NC4CCC3CC4)C2)c2ccncc21)C(C)C [Example 9, (S)-2-(3-(1-(2-Azabicyclo[2.2.2]octane-3-carbonyl)azetidine-3-carbonyl)-1H-pyrrolo[2,3-c]pyridin-1-yl)-N-ethyl-5-fluoro-N-isopropylbenzamide] | 0.1 µM | 0.225 µM |  |  | > 10 µM |  |  |
| CC(C)c1cnccc1-c1cc(F)ccc1-n1cc(C(=O)C2CN(C(=O)[C@H]3N[C@@H]4CC[C@H]3C4)C2)c2ccncc21.O=CO [Example 11, (1-((1R,3S,4S)-2-Azabicyclo[2.2.1]heptane-3-carbonyl)azetidin-3-yl)(1-(4-fluoro-2-(3-isopropylpyridin-4-yl)phenyl)-1H-pyrrolo[2,3-c]pyridin-3-yl)methanone 1·formic acid] | 0.031 µM | 0.051 µM | 5 µM |  | > 10 µM |  |  |
| CC(C)(F)c1ncccc1-c1cc(F)ccc1-n1cc(C(=O)C2CN(C(=O)[C@H]3N[C@@H]4CC[C@H]3C4)C2)c2ccncc21 [Example 13, (1-((1R,3S,4S)-2-Azabicyclo[2.2.1]heptane-3-carbonyl)azetidin-3-yl)(1-(4-fluoro-2-(2-(2-fluoropropan-2-yl)pyridin-3-yl)phenyl)-1H-pyrrolo[2,3-c]pyridin-3-yl)methanone] | 0.034 µM | 0.037 µM | 9.7 µM |  | > 10 µM |  |  |
| CC(C)N(C(=O)c1cc(F)ccc1-n1cc(C(=O)C2CN(C(=O)[C@H]3N[C@@H]4CC[C@H]3C4)C2)c2ccnc(F)c21)C(C)C [Example 15, 2-(3-(1-((1R,3S,4S)-2-Azabicyclo[2.2.1]heptane-3-carbonyl)azetidine-3-carbonyl)-7-fluoro-1H-pyrrolo[2,3-c]pyridin-1-yl)-5-fluoro-N,N-diisopropylbenzamide] | 0.053 µM | 0.103 µM | 13.6 µM |  | > 10 µM |  |  |
| CC(C)N(C(=O)c1cc(F)ccc1-n1cc(C(=O)C2CCN(C[C@H]3CC[C@H](NS(C)(=O)=O)CC3)CC2)c2ccncc21)C(C)C [Example 17, 5-Fluoro-N,N-diisopropyl-2-(3-(1-(((1r,4r)-4-(methylsulfonamido)cyclohexyl)-methyl)piperidine-4-carbonyl)-1H-pyrrolo[2,3-c]pyridin-1-yl)benzamide] | 0.32 µM | 0.356 µM |  |  | > 10 µM |  |  |
| CC(C)N(C(=O)c1cc(F)ccc1-n1cc(C(=O)C2CCN(C(=O)[C@@H]3CCC4(CC4)N3)CC2)c2ccncc21)C(C)C [Example 24, (S)-2-(3-(1-(4-Azaspiro[2.4]heptane-5-carbonyl)piperidine-4-carbonyl)-1H-pyrrolo[2,3-c]pyridin-1-yl)-5-fluoro-N,N-diisopropylbenzamide] | 0.02 µM | 0.021 µM | 1.2 µM |  | > 10 µM |  |  |
| CC(C)N(C(=O)c1cc(F)ccc1-n1cc(C(=O)C2CCN(C(=O)[C@@H]3CC4(CC4)CN3)CC2)c2ccncc21)C(C)C [Example 26, (S)-2-(3-(1-(5-Azaspiro[2.4]heptane-6-carbonyl)piperidine-4-carbonyl)-1H-pyrrolo[2,3-c]pyridin-1-yl)-5-fluoro-N,N-diisopropylbenzamide] | 0.05 µM | 0.14 µM | 2.6 µM |  | > 10 µM |  |  |

Continued, in another order:

| IC50 (MV4;11 cells; Homo sapiens, MV4-11, 168 h) | IC50 (OCI-AML3 cells; Homo sapiens, OCI-AML-3, 168 h) | Ki (muscarinic M2 receptor) | IC50 (OCI-AML3 cells) | SMILES | IC50 (HEL cells; Homo sapiens, HEL, 168 h) | IC50 (MV4;11 cells) | IC50 (HEL cells) |
| --- | --- | --- | --- | --- | --- | --- | --- |
| 0.039 µM | 0.063 µM | 34.3 µM |  | CCN(C(=O)c1cc(F)ccc1-n1c(C)c(C(=O)C2CCN(C(=O)[C@@H]3CCC(C)(C)N3)CC2)c2ccncc21)C(C)C (single isomer, unassigned) [Example 50-2] |  |  | > 10 µM |
|  |  | 19.8 µM | 0.014 µM | Cc1c(C(=O)[C@@H]2CCN(C(=O)[C@H]3NC[C@@H]4C[C@@H]43)[C@@H](C)C2)c2ccncc2n1-c1ccc(F)cc1C(=O)N(CC(F)(F)F)C(C)C (single isomer, unassigned) [Example 53-3, 2-(3-((2R*,4S*)-1-((1S,2S,5R)-3-Azabicyclo[3.1.0]hexane-2-carbonyl)-2-methylpiperidine-4-carbonyl)-2-methyl-1H-pyrrolo[2,3-c]pyridin-1-yl)-5-fluoro-N-isopropyl-N-(2,2,2-trifluoroethyl)benzamide] |  | 0.013 µM | > 10 µM |
| 0.051 µM | 0.077 µM | > 100 µM |  | Cc1c(C(=O)C2CCN(C(=O)[C@H]3NC[C@@H]4C[C@@H]43)CC2)c2ccncc2n1-c1ccc(F)cc1C(=O)N(C(C)C)[C@H](C)C(F)(F)F (single isomer, unassigned) [Example 57-1] | > 10 µM |  |  |
| 0.035 µM | 0.034 µM | 1.6 µM |  | CC(C)N(C(=O)c1cc(F)ccc1-n1cc(C(=O)C2CCN(C(=O)[C@@H]3CCC(C)(C)N3)CC2)c2ccncc21)C(C)C [Example 27, (S)-2-(3-(1-(5,5-Dimethylpyrrolidine-2-carbonyl)piperidine-4-carbonyl)-1H-pyrrolo[2,3-c]pyridin-1-yl)-5-fluoro-N,N-diisopropylbenzamide] | > 10 µM |  |  |
| 0.033 µM | 0.059 µM |  |  | CCN(C(=O)c1cc(F)ccc1-n1cc(C(=O)C2CCN(C(=O)[C@H]3N[C@H]4C[C@@H]3[C@@H](F)C4)CC2)c2ccncc21)C(C)C [Example 30, N-Ethyl-5-fluoro-2-(3-(1-((1S,3S,4S,5S)-5-fluoro-2-azabicyclo[2.2.1]heptane-3-carbonyl)piperidine-4-carbonyl)-1H-pyrrolo[2,3-c]pyridin-1-yl)-N-isopropylbenzamide] | > 10 µM |  |  |
| 0.103 µM | 0.207 µM | 0.3 µM |  | C[C@@H]1CCC[C@H](C)N1C(=O)c1cc(F)ccc1-n1cc(C(=O)C2CCN(C(=O)[C@H]3N[C@@H]4CC[C@H]3C4)CC2)c2ccncc21 [Example 33, (1-((1R,3S,4S)-2-Azabicyclo[2.2.1]heptane-3-carbonyl)piperidin-4-yl)(1-(2-((2R,6S)-2,6-dimethylpiperidine-1-carbonyl)-4-fluorophenyl)-1H-pyrrolo[2,3-c]pyridin-3-yl)methanone] | > 10 µM |  |  |
| 0.043 µM | 0.076 µM | 0.5 µM |  | CC(C)c1ncsc1-c1cc(F)ccc1-n1cc(C(=O)C2CCN(C(=O)[C@H]3N[C@@H]4CC[C@H]3C4)CC2)c2ccncc21.O=CO [Example 42, (1-((1R,3S,4S)-2-Azabicyclo[2.2.1]heptane-3-carbonyl)piperidin-4-yl)(1-(4-fluoro-2-(4-isopropylthiazol-5-yl)phenyl)-1H-pyrrolo[2,3-c]pyridin-3-yl)methanone 1·formic acid] | > 10 µM |  |  |
